Results reported in patent US6610699B2, “Use of L-carnitine and its alkanoyl derivatives in the preparation of medicaments with anticancer activity” (Sigma-Tau Industrie Farmaceutiche Riunite S.p.A., priority 1998, dated 2003).
Marks after values point to notes of the source that are not given here.

Assays:
[1] = Taxol-induced weight loss: body weight; assay type: in vivo, rat; conditions: for Body weight, BASAL: prior to starting treatment; for Body weight, % vs BASALE / Body weight, % vs SHAM: 5 weeks; for Body weight, 5 WEEKS: end of treatment
From the text: The animals used in the preceding experimental model were weighed prior to starting treatment (basal values) and at the end of treatment.

Hamsters = experiment: Bleomycin-induced pulmonary toxicity in hamsters: lung hydroxyproline content; assay type: in vivo, hamster; conditions: pre-treatment i.p. (ALC 200 mg/kg or saline, daily 1 week)/intratracheal instillation (bleomycin 1 unit or saline); day 22
Procedure: Hamsters weighing 120 g were treated with bleomycin (1 unit) by the intratracheal route (IT) or with an equivalent volume of saline. In addition, the animals were pre-treated with ALC (200 mg/kg) or saline intraperitoneally just before the instillation of bleomycin, followed by daily injections for 1 week. The animals were allowed 3 weeks to recover prior to taking the tissue samples. At the time tissue samples were taken (day 22), one lung of each animal was prepared for histological investigation and the other lung for quantitative determination of hydroxyproline.
The hydroxyproline content (one of the main constituents of collagen) was measured using the known Woessner method. Lung samples were homogenised, hydrolysed with NaOH, and then left to oxidise before adding Erlich aldehyde reagent. Duplicate aliquots of each sample were assayed by spectrophotometry and compared with a standard calibration curve obtained with purified hydroxyproline. The hydroxyproline content (HYP) is expressed as mg/lung.

Row | Structure (SMILES) | Body weight, BASAL ([1]; taxol 8 mg/kg groups) | Body weight, % vs BASALE ([1]; taxol 8 mg/kg) | Body weight, % vs SHAM ([1]; taxol 8 mg/kg) | Body weight, 5 WEEKS ([1]; taxol 8 mg/kg) | Body weight, BASAL ([1]; taxol 16 mg/kg groups) | Body weight, % vs BASALE ([1]; taxol 16 mg/kg) | Body weight, % vs SHAM ([1]; taxol 16 mg/kg) | Body weight, 5 WEEKS ([1]; taxol 16 mg/kg) | hydroxyproline content (HYP) (Hamsters)
1 | CC(=O)O[C@H]1C(=O)[C@@]2(C)[C@H]([C@H](OC(=O)c3ccccc3)[C@]3(O)C[C@H](OC(=O)[C@H](O)[C@@H](NC(=O)c4ccccc4)c4ccccc4)C(C)=C1C3(C)C)[C@]1(OC(C)=O)CO[C@@H]1C[C@@H]2O [Taxol, paclitaxel, reference compound] | 210 ± 9.1 | +13** % | +1% | 237 ± 20.8 | 212 ± 12.5 | −15** % | −23● % | 180 ± 16.0 | 
2 | CC(=O)O[C@H](CC(=O)[O-])C[N+](C)(C)C [ALC, acetyl L-carnitine] |  |  |  |  |  |  |  |  | 0.801 mg/lung
